Test results reported in ChEMBL document CHEMBL4507261, “Data for DCP probe A-192621” (2021).

Assays:
[1] = target: Ribosomal protein S6 kinase alpha-3 (Homo sapiens) (UniProt P51812); conditions: Compound concentration 1000.0 nM
[2] = target: Dual specificity mitogen-activated protein kinase kinase 3 (Homo sapiens) (UniProt P46734); conditions: Compound concentration 1000.0 nM
[3] = target: Mitogen-activated protein kinase 13 (Homo sapiens) (UniProt O15264); conditions: Compound concentration 1000.0 nM
[4] = target: Megakaryocyte-associated tyrosine-protein kinase (Homo sapiens) (UniProt P42679); conditions: Compound concentration 1000.0 nM
[5] = target: Calcium/calmodulin-dependent protein kinase type 1D (Homo sapiens) (UniProt Q8IU85); conditions: Compound concentration 1000.0 nM
[6] = target: Calcium/calmodulin-dependent protein kinase type II subunit gamma (Homo sapiens) (UniProt Q13555); conditions: Compound concentration 1000.0 nM
[7] = target: Ribosomal protein S6 kinase alpha-4 (Homo sapiens) (UniProt O75676); conditions: Compound concentration 1000.0 nM
[8] = target: Ribosomal protein S6 kinase alpha-1 (Homo sapiens) (UniProt Q15418); conditions: Compound concentration 1000.0 nM
[9] = target: Serine/threonine-protein kinase DCLK1 (Homo sapiens) (UniProt O15075); conditions: Compound concentration 1000.0 nM
[10] = target: Fibroblast growth factor receptor 3 (Homo sapiens) (UniProt P22607); conditions: Compound concentration 1000.0 nM
[11] = target: Tyrosine-protein kinase ABL1 (Homo sapiens) (UniProt P00519); conditions: Compound concentration 1000.0 nM
[12] = target: Wee1-like protein kinase 2 (Homo sapiens) (UniProt P0C1S8); conditions: Compound concentration 1000.0 nM
[13] = target: Mitogen-activated protein kinase kinase kinase 2 (Homo sapiens) (UniProt Q9Y2U5); conditions: Compound concentration 1000.0 nM
[14] = target: Protein kinase C iota type (Homo sapiens) (UniProt P41743); conditions: Compound concentration 1000.0 nM
[15] = target: Serine/threonine-protein kinase pim-2 (Homo sapiens) (UniProt Q9P1W9); conditions: Compound concentration 1000.0 nM
[16] = target: Mitogen-activated protein kinase 12 (Homo sapiens) (UniProt P53778); conditions: Compound concentration 1000.0 nM
[17] = target: Tyrosine-protein kinase ABL1 (Homo sapiens) (UniProt P00519); conditions: Compound concentration 1000.0 nM; remark: listed apart in the source
[18] = tested on: Leucine-rich repeat serine/threonine-protein kinase 2 (Homo sapiens), Q5S007 [G2019S]; conditions: Compound concentration 1000.0 nM
[19] = target: SNF-related serine/threonine-protein kinase (Homo sapiens) (UniProt Q9NRH2); conditions: Compound concentration 1000.0 nM
[20] = target: Ephrin type-A receptor 6 (Homo sapiens) (UniProt Q9UF33); conditions: Compound concentration 1000.0 nM
[21] = target: Acetylcholinesterase (Homo sapiens) (UniProt P22303); test: Acetylcholinesterase (h) Eurofins-Cerep enzyme and uptake assay; conditions: Compound concentration 10.0 uM
[22] = target: Serine/threonine-protein kinase 3 (Homo sapiens) (UniProt Q13188); conditions: Compound concentration 1000.0 nM
[23] = target: Macrophage colony-stimulating factor 1 receptor (Homo sapiens) (UniProt P07333); conditions: Compound concentration 1000.0 nM
[24] = target: Serine/threonine-protein kinase/endoribonuclease IRE1 (Homo sapiens) (UniProt O75460); conditions: Compound concentration 1000.0 nM
[25] = target: Fibroblast growth factor receptor 1 (Homo sapiens) (UniProt P11362); conditions: Compound concentration 1000.0 nM
[26] = target: Cyclin-dependent kinase 3 (Homo sapiens) (UniProt Q00526); conditions: Compound concentration 1000.0 nM
[27] = target: Death-associated protein kinase 3 (Homo sapiens) (UniProt O43293); conditions: Compound concentration 1000.0 nM
[28] = target: Dual specificity protein kinase CLK3 (Homo sapiens) (UniProt P49761); conditions: Compound concentration 1000.0 nM
[29] = tested on: Proto-oncogene tyrosine-protein kinase receptor Ret (Homo sapiens), P07949 [V804L]; conditions: Compound concentration 1000.0 nM
[30] = target: Cyclin-dependent kinase-like 2 (Homo sapiens) (UniProt Q92772); conditions: Compound concentration 1000.0 nM
[31] = target: Casein kinase I isoform alpha (Homo sapiens) (UniProt P48729); conditions: Compound concentration 1000.0 nM
[32] = target: D(1A) dopamine receptor (Homo sapiens) (UniProt P21728); test: D1 (h) Eurofins-Cerep binding assay; set-up: ligand concentration 0.3 nM; conditions: filed as antagonist, Compound concentration 10.0 uM
[33] = tested on: Epidermal growth factor receptor (Homo sapiens), P00533 [L858R,T790M]; conditions: Compound concentration 1000.0 nM
[34] = target: 5-hydroxytryptamine receptor 1B (Homo sapiens) (UniProt P28222); test: 5-HT1B(h) Eurofins-Cerep binding assay; set-up: ligand concentration 1 nM; conditions: filed as antagonist, Compound concentration 10.0 uM
[35] = target: Serine/threonine-protein kinase RIO1 (Homo sapiens) (UniProt Q9BRS2); conditions: Compound concentration 1000.0 nM
[36] = target: Serine/threonine-protein kinase 26 (Homo sapiens) (UniProt Q9P289); conditions: Compound concentration 1000.0 nM
[37] = target: Vascular endothelial growth factor receptor 1 (Homo sapiens) (UniProt P17948); conditions: Compound concentration 1000.0 nM
[38] = tested on: Receptor-type tyrosine-protein kinase FLT3 (Homo sapiens), P36888 [D835Y]; conditions: Compound concentration 1000.0 nM
[39] = target: Tyrosine-protein kinase receptor TYRO3 (Homo sapiens) (UniProt Q06418); conditions: Compound concentration 1000.0 nM
[40] = tested on: Epidermal growth factor receptor (Homo sapiens), P00533 [UNDEFINED MUTATION]; conditions: Compound concentration 1000.0 nM
[41] = target: Serine/threonine-protein kinase B-raf (Homo sapiens) (UniProt P15056); conditions: Compound concentration 1000.0 nM
[42] = target: Cyclin-dependent kinase 4 (Homo sapiens) (UniProt P11802); conditions: Compound concentration 1000.0 nM

Chain of Tyrosine-protein kinase ABL1 (Homo sapiens) (P00519 whole entry): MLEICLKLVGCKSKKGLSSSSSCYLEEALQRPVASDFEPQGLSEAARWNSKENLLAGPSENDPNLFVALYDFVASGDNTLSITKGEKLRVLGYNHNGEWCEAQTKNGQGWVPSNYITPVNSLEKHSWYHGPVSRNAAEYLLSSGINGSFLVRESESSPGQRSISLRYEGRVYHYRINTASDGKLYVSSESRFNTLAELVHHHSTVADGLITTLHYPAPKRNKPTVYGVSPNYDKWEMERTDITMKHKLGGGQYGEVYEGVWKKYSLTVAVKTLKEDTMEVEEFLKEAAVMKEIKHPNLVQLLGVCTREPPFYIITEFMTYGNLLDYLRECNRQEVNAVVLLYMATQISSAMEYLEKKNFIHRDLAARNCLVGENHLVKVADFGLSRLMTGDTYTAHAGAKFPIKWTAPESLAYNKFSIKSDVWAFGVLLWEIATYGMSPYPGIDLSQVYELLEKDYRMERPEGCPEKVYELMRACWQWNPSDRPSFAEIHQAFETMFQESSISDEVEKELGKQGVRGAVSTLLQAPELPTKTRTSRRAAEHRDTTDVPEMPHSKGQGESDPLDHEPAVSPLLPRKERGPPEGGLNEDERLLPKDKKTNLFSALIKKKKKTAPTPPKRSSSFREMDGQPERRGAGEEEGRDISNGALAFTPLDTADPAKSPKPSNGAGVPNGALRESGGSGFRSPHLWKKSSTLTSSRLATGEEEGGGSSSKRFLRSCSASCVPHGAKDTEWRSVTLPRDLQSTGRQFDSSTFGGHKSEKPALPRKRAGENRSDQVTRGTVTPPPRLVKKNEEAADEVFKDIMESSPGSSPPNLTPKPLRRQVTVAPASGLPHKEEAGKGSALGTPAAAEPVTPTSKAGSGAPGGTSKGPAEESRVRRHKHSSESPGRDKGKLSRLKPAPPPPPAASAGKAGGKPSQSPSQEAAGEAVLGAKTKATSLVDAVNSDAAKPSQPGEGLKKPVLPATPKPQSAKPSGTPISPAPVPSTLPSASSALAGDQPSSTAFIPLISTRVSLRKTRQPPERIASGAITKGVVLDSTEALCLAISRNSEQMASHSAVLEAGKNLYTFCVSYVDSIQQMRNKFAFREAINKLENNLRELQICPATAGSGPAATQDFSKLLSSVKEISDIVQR
Chain of Macrophage colony-stimulating factor 1 receptor (Homo sapiens) (P07333 whole entry): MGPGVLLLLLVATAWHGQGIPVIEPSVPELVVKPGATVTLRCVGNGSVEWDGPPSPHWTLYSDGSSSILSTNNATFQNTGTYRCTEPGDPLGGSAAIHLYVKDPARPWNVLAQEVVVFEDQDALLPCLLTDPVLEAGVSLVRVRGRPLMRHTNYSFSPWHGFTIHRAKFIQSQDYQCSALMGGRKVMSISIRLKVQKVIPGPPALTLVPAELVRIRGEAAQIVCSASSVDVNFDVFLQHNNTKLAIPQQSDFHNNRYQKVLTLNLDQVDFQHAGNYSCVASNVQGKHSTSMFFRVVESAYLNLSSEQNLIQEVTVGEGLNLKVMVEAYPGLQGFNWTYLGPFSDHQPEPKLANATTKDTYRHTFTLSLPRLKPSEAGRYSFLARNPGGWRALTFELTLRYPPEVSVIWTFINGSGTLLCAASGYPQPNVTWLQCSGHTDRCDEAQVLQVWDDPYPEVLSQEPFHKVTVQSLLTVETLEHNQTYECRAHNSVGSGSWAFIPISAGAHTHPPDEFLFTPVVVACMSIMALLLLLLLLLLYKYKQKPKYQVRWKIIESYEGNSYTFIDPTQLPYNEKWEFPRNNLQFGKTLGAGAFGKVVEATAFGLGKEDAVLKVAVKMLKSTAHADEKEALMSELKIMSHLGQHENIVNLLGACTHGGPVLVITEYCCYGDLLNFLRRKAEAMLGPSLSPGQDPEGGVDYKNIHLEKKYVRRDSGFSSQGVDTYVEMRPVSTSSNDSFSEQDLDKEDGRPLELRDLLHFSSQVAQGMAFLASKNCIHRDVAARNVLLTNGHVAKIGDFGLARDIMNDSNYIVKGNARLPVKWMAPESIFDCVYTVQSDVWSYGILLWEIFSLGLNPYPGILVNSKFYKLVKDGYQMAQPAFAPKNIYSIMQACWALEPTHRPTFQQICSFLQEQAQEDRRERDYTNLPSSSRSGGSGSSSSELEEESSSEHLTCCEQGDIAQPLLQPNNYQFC
Chain of Serine/threonine-protein kinase RIO1 (Homo sapiens) (Q9BRS2 whole entry): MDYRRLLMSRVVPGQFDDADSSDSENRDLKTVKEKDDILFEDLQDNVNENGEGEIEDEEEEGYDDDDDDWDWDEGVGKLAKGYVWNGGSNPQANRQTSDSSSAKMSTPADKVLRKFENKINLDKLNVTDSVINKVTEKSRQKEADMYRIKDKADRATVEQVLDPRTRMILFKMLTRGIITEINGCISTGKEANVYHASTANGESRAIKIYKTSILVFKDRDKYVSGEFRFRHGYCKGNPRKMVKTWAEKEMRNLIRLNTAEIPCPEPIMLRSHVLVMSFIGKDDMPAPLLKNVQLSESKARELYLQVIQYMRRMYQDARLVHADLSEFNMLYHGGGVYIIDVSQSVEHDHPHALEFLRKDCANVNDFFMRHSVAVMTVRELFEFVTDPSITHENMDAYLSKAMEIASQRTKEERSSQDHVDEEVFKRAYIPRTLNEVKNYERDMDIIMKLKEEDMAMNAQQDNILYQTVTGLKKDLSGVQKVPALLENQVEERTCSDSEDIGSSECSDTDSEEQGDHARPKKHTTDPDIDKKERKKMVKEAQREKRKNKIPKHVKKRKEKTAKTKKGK
Chain of Cyclin-dependent kinase-like 2 (Homo sapiens) (Q92772 whole entry, canonical isoform): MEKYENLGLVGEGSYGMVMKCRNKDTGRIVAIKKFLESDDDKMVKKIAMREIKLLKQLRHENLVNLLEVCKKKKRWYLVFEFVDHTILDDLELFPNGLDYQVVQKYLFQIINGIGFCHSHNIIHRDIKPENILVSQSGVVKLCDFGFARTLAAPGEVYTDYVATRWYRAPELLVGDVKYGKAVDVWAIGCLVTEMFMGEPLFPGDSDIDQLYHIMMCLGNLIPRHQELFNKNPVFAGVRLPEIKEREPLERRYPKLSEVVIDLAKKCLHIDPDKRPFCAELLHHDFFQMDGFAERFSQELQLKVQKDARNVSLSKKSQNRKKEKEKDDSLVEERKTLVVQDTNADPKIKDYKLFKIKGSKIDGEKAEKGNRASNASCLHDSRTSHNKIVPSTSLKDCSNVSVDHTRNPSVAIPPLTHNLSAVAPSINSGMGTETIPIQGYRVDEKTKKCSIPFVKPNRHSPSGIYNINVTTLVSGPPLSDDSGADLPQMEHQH
Chain of Ribosomal protein S6 kinase alpha-4 (Homo sapiens) (O75676 whole entry, looked up): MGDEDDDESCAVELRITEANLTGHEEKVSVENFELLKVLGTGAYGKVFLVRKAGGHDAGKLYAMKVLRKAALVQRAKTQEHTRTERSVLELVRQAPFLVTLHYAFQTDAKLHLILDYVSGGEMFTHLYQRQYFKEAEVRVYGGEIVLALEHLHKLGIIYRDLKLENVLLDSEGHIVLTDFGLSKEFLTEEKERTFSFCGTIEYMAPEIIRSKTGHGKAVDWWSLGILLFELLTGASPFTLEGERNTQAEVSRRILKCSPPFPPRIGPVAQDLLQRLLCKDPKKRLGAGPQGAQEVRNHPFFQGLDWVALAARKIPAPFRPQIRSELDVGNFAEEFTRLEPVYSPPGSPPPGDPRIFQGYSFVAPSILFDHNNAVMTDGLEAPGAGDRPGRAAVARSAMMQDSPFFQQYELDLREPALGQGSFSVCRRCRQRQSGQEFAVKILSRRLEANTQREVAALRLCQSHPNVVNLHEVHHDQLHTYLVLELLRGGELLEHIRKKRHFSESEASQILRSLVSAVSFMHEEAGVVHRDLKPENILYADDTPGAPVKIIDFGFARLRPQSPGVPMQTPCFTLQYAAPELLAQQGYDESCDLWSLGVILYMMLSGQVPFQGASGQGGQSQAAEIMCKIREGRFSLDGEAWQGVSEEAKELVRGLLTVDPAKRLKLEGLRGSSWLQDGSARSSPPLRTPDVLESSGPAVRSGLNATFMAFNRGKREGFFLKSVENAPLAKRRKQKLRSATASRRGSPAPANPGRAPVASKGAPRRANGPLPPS
Chain of Serine/threonine-protein kinase 26 (Homo sapiens) (Q9P289 2-416 limits assumed): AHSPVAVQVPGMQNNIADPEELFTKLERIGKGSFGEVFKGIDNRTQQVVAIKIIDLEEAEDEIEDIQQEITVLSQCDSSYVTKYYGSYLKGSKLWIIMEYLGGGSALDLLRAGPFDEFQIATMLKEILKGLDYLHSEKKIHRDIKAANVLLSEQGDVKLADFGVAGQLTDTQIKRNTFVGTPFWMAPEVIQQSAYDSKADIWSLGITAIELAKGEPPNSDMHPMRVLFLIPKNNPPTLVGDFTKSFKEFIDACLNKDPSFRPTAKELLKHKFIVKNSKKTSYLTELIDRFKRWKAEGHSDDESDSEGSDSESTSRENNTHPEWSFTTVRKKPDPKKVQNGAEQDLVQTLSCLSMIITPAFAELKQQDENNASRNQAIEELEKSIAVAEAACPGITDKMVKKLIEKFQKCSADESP
Chain of Megakaryocyte-associated tyrosine-protein kinase (Homo sapiens) (P42679 whole entry): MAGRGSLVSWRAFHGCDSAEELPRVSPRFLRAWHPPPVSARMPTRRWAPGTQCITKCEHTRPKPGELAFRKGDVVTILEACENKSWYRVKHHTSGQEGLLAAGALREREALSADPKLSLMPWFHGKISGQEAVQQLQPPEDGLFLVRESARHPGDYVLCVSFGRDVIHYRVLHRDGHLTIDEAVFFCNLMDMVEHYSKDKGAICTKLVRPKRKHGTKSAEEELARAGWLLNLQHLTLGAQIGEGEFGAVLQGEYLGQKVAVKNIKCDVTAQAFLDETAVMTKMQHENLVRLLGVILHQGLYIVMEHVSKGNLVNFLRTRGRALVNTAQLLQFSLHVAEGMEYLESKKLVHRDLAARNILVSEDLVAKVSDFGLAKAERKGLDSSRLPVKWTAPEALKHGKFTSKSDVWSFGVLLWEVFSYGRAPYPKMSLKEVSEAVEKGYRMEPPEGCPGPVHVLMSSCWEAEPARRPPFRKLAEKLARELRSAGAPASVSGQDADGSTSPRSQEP

CCCOc1ccc([C@H]2[C@H](C(=O)O)[C@@H](c3ccc4c(c3)OCO4)CN2CC(=O)Nc2c(CC)cccc2CC)cc1 [A-192621]
12.3%: % Inhibition of Control Specific Binding (Mean n=2) [34]
inactive: residual activity [1] 73% | residual activity [2] 60% | residual activity [3] 92% | residual activity [4] 83% | residual activity [5] 75% | residual activity [6] 95% | residual activity [7] 84% | residual activity [8] 74% | residual activity [9] 75% | residual activity [10] 100% | residual activity [11] 70% | residual activity [12] 85% | residual activity [13] 82% | residual activity [14] 78% | residual activity [15] 91% | residual activity [16] 73% | residual activity [17] 73% | residual activity [18] 91% | residual activity [19] 84% | residual activity [20] 100% | residual activity [22] 96% | residual activity [23] 61% | residual activity [24] 86% | residual activity [25] 100% | residual activity [26] 95% | residual activity [27] 89% | residual activity [28] 97% | residual activity [29] 93% | residual activity [30] 84% | residual activity [31] 72% | residual activity [33] 75% | residual activity [35] 86% | residual activity [36] 74% | residual activity [37] 97% | residual activity [38] 100% | residual activity [39] 100% | residual activity [40] 100% | residual activity [41] 80% | residual activity [42] 100%
7%: % Inhibition of Control Values (Mean n=2) [21]
-2.2%: % Inhibition of Control Specific Binding (Mean n=2) [32]

CCCOc1ccc([C@@H]2[C@@H](C(=O)O)[C@H](c3ccc4c(c3)OCO4)CN2CC(=O)Nc2c(CC)cccc2CC)cc1 [A-1806262]
4%: % Inhibition of Control Values (Mean n=2) [21]
-0.2%: % Inhibition of Control Specific Binding (Mean n=2) [32]
13.4%: % Inhibition of Control Specific Binding (Mean n=2) [34]
inactive: residual activity [1] 76% | residual activity [2] 82% | residual activity [3] 100% | residual activity [4] 90% | residual activity [5] 97% | residual activity [6] 88% | residual activity [7] 97% | residual activity [8] 77% | residual activity [9] 80% | residual activity [10] 100% | residual activity [11] 88% | residual activity [12] 87% | residual activity [13] 100% | residual activity [14] 80% | residual activity [15] 99% | residual activity [16] 100% | residual activity [17] 80% | residual activity [18] 84% | residual activity [19] 87% | residual activity [20] 98% | residual activity [22] 100% | residual activity [23] 90% | residual activity [24] 90% | residual activity [25] 100% | residual activity [26] 100% | residual activity [27] 79% | residual activity [28] 93% | residual activity [29] 97% | residual activity [30] 96% | residual activity [31] 73% | residual activity [33] 87% | residual activity [35] 100% | residual activity [36] 81% | residual activity [37] 94% | residual activity [38] 100% | residual activity [39] 94% | residual activity [40] 100% | residual activity [41] 96% | residual activity [42] 100%
